In patent US12458631B2, “Use of dihydroberberine or its derivatives for anti-glycation” (NANJING NUTRABUILDING BIO-TECH CO., LTD., priority 2022, dated 2025):

Experiments:
Assay type in all cases: in vivo, Kunming mice
H2O2 = H2O2 content in skin homogenate of D-galactose-injected mice; details: 14th week
Method: (§1) Six-week-old, male, Kunming mice, weighed about 30±2 g, were obtained from Cavens Lab Animal (Changzhou, China) and housed in a controlled room (25±2° C., 60% relative humidity, 12 h light/dark cycle) with free access to water and standard laboratory diet. After an acclimation period (1 week), mice were randomly divided into 3 groups of 9 animals. Choose the mice's back skin as the experimental observation area, use a razor to shave off the back hair of the mice. Apply 5% sodium sulfide solution to the back of the mice to remove the hair. Then all mice were injected subcutaneously with the same volume of D-galactose (1000 mg/kg), once a day for 8 weeks. During the entire process of the experiment, the daily food intake and weight of mice were recorded every day, and the D-galactose injection dose was adjusted following the weight change. The 3 groups of 9 animals were (1) non-supplement group (Con, Group 1); (2) DHB supplement group (DHB, 100 mg/kg, Group 2); (3) DHB supplement group (DHB, 200 mg/kg, Group 3). […] The levels of H2O2, MDA, SOD, CAT, GSH, and GSH-Px in the skin were detected with relative kits as reference. […] Quantitative polymerase chain reaction (QPCR) and western blot methods were used to measure the expression of MMP-1 in the skin.

skin collagen fibers = assay: Masson staining, quantification of skin collagen fibers in D-galactose-injected mice; details: 14th week
Method: Six-week-old, male, Kunming mice, weighed about 30±2 g, were obtained from Cavens Lab Animal (Changzhou, China) and housed in a controlled room (25±2° C., 60% relative humidity, 12 h light/dark cycle) with free access to water and standard laboratory diet. After an acclimation period (1 week), mice were randomly divided into 3 groups of 9 animals. Choose the mice's back skin as the experimental observation area, use a razor to shave off the back hair of the mice. Apply 5% sodium sulfide solution to the back of the mice to remove the hair. Then all mice were injected subcutaneously with the same volume of D-galactose (1000 mg/kg), once a day for 8 weeks. During the entire process of the experiment, the daily food intake and weight of mice were recorded every day, and the D-galactose injection dose was adjusted following the weight change. The 3 groups of 9 animals were (1) non-supplement group (Con, Group 1); (2) DHB supplement group (DHB, 100 mg/kg, Group 2); (3) DHB supplement group (DHB, 200 mg/kg, Group 3). […] To further examine the content of skin collagen fibers, this was determined by Masson's staining. Then quantitation of skin epidermis and dermis, and collagen were calculated based on the results of observation.

[1] = Fasting blood glucose level by glucometer in D-galactose-injected mice; details: for blood glucose level decreased compared to the non-supplement group: 14th week
Method: Six-week-old, male, Kunming mice, weighed about 30±2 g, were obtained from Cavens Lab Animal (Changzhou, China) and housed in a controlled room (25±2° C., 60% relative humidity, 12 h light/dark cycle) with free access to water and standard laboratory diet. After an acclimation period (1 week), mice were randomly divided into 3 groups of 9 animals. Choose the mice's back skin as the experimental observation area, use a razor to shave off the back hair of the mice. Apply 5% sodium sulfide solution to the back of the mice to remove the hair. Then all mice were injected subcutaneously with the same volume of D-galactose (1000 mg/kg), once a day for 8 weeks. During the entire process of the experiment, the daily food intake and weight of mice were recorded every day, and the D-galactose injection dose was adjusted following the weight change. The 3 groups of 9 animals were (1) non-supplement group (Con, Group 1); (2) DHB supplement group (DHB, 100 mg/kg, Group 2); (3) DHB supplement group (DHB, 200 mg/kg, Group 3). Mice in group 2 and group 3 were injected subcutaneously (s.c.) into their back skins with the corresponding concentrations of DHB before each major meal once daily for 6 weeks. When all mice were on fasting, collect approximately 10 μL of blood by the tail nick for 3 times, at the beginning of the trial (0 week), after the D-galactose injection (8th week), and at the end of the trial (14th week). Use the glucometer to measure the glucose level.

CAT = CAT activity in skin of D-galactose-injected mice; details: DHB groups (100 and 200 mg/kg s.c.), 14th week
Method: as §1

GSH-Px = GSH-Px activity in skin of D-galactose-injected mice; details: 14th week
Method: as §1

GSH = GSH activity in skin of D-galactose-injected mice; details: DHB groups (100 and 200 mg/kg s.c.), 14th week
Method: as §1

MDA = MDA content in skin of D-galactose-injected mice (kit/ELISA); details: group 3, DHB 200 mg/kg s.c., 14th week
Method: as §1

[2] = system: skin epidermis and dermis; assay: H&E staining, quantitation of skin epidermis and dermis in D-galactose-injected mice; details: 14th week
Method: Six-week-old, male, Kunming mice, weighed about 30±2 g, were obtained from Cavens Lab Animal (Changzhou, China) and housed in a controlled room (25±2° C., 60% relative humidity, 12 h light/dark cycle) with free access to water and standard laboratory diet. After an acclimation period (1 week), mice were randomly divided into 3 groups of 9 animals. Choose the mice's back skin as the experimental observation area, use a razor to shave off the back hair of the mice. Apply 5% sodium sulfide solution to the back of the mice to remove the hair. Then all mice were injected subcutaneously with the same volume of D-galactose (1000 mg/kg), once a day for 8 weeks. During the entire process of the experiment, the daily food intake and weight of mice were recorded every day, and the D-galactose injection dose was adjusted following the weight change. The 3 groups of 9 animals were (1) non-supplement group (Con, Group 1); (2) DHB supplement group (DHB, 100 mg/kg, Group 2); (3) DHB supplement group (DHB, 200 mg/kg, Group 3). Mice in group 2 and group 3 were injected subcutaneously (s.c.) into their back skins with the corresponding concentrations of DHB before each major meal once daily for 6 weeks. All mice were sacrificed following 6 weeks at the end of the experiment. The skin tissue was divided into three parts, the first part was stored at −80° C. until assays were performed, the second part was immediately collected, weighed and homogenized (4° C.; 3500 rpm for 15 min) for biochemical and histological analyses, and the third part was fixed in 10% formalin until further use. Hematoxylin-eosin staining (H&E) and Masson staining were performed on skin samples. Skins were fixed in 10% formalin 48 h at room temperature and paraffin-embedded afterward. With H&E staining, skins were sliced into 4 μm, dehydrated of gradient ethanol, and stained with hematoxylin and eosin. For Masson staining, sliced skins were stained with a Masson kit as the instruction said. H&E staining to observe the skin epidermis and dermis structure change and analyze stained collagen fibers by Image-Pro Plus 6.0 in the perspective of 400 times to detect the percentage of collagen fibers area. To further examine the content of skin collagen fibers, this was determined by Masson's staining. Then quantitation of skin epidermis and dermis, and collagen were calculated based on the results of observation.

SOD = SOD activity in skin of D-galactose-injected mice; details: 14th week
Method: as §1

MMP-1 = MMP-1 expression in skin (QPCR and western blot) of D-galactose-injected mice; details: 14th week
Method: as §1

[3] = DHB groups (100 and 200 mg/kg s.c.)
[4] = DHB supplemented groups (100 and 200 mg/kg s.c.)

## COc1ccc2c(c1OC)CN1CCc3cc4c(cc3C1=C2)OCO4 [DHB, Dihydroberberine]
H2O2; group 2, DHB 100 mg/kg s.c.
  H2O2 content decreased compared to the non-supplement group: about 33%
H2O2; group 3, DHB 200 mg/kg s.c.
  H2O2 content decreased compared to the non-supplement group: ~58%
Skin collagen fibers; DHB supplement groups (100 and 200 mg/kg s.c.)
  contents of collagen in the skin tissue compared with the control group: significantly higher
Skin collagen fibers; higher dose group, DHB 200 mg/kg s.c.
  content of collagen in the skin tissue, higher than control group: 2.2 times
[1]; [3]
  blood glucose levels after supplementation: decreased significantly
[1]; group 2, DHB 100 mg/kg s.c. once daily for 6 weeks
  blood glucose level decreased compared to the non-supplement group: about 39%
[1]; group 3, DHB 200 mg/kg s.c. once daily for 6 weeks
  blood glucose level decreased compared to the non-supplement group: ~44%
CAT
  CAT activity after DHB supplementation: significantly improved
GSH-Px; [3]
  GSH-Px activity after DHB supplementation: significantly improved
GSH-Px; group 3, DHB 200 mg/kg s.c.
  GASH-Px increase compared to non-supplementation group: ~1.8 times
GSH
  GSH activity after DHB supplementation: significantly improved
MDA
  content of MDA lower than in the control group: 63%
[2]; [4]
  dermal thickness vs control group: significant thicker
  epidermal thickness vs control group: significant thicker
[2]; group 3, DHB 200 mg/kg s.c.
  prevention or reduction of dermal thickness decrease: 78%
  prevention or reduction of epidermal thickness decrease: 72%
SOD; [3]
  SOD activity after DHB supplementation: significantly improved
SOD; group 3, DHB 200 mg/kg s.c.
  SOD increase compared to non-supplementation group: about 2.9 times
MMP-1; group 2, DHB 100 mg/kg s.c.
  MMP-1 expression reduced compared to non-supplement group: about 23%
MMP-1; group 3, DHB 200 mg/kg s.c.
  MMP-1 expression reduced compared to non-supplement group: about 51%
